The text below walks through data of ChEMBL document CHEMBL1134297, “5,6-Diphenylpyridazine derivatives as acyl-CoA:cholesterol acyltransferase inhibitors” (J Med Chem, 2001).

As usually defined, the IC50 is the concentration that gives 50% inhibition. Usually Inhibition stands for the relative decrease from the control value, in per cent.

Where “and” joins values, the source holds several entries; their conditions need not be identical. Equal entries are not always repeated.

One assay deals with T1, Sterol O-acyltransferase 1 (Rattus norvegicus, UniProt O70536).
T1 sequence (O70536 whole entry): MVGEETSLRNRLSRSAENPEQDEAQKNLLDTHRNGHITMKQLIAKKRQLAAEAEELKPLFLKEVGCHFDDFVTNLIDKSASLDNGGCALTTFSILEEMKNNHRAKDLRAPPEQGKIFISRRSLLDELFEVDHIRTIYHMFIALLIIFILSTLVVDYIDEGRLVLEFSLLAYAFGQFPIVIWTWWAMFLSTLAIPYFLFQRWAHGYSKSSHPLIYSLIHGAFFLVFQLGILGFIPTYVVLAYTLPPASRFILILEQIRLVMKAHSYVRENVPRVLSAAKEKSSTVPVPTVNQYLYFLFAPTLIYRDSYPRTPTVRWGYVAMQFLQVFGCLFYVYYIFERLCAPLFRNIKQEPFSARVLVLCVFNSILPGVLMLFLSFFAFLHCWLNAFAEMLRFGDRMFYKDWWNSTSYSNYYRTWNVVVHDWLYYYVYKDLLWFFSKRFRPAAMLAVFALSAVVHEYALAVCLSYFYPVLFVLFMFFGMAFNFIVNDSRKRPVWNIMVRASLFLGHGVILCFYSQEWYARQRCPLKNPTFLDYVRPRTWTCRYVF
Description: In vitro acyl-coenzyme A:cholesterol acyltransferase inhibition in rat liver microsomes. More on the design: species or system Microsome. In general terms: Liver microsomes are a subcellular fraction often used to study metabolism.
As to `O=C(O)CCCCCCCSc1cc(-c2ccccc2)c(-c2ccccc2)nn1`, the IC50 is more than 300 µM.
The same measure, in the same setting: next, `CCCCCCCCCSc1cc(-c2ccccc2)c(-c2ccccc2)nn1`: 116 µM; `CCCCCCCCCS(=O)(=O)c1cc(-c2ccccc2)c(-c2ccccc2)nn1`: 76 µM.
For `CCCCCCCCSc1cc(-c2ccccc2)c(-c2ccccc2)nn1`, 130 µM corresponded to half-maximal inhibition (IC50).
The compound `CCCCCCCNc1cc(-c2ccccc2)c(-c2ccccc2)nn1` showed an IC50 of 55 µM.
For the compound `CCCCCCCCOc1cc(-c2ccccc2)c(-c2ccccc2)nn1`, the IC50 was determined as 104 µM.
On the same count and under the same terms, next, `CCCCCCOc1cc(-c2ccccc2)c(-c2ccccc2)nn1`: 72 µM; `CCCCCCCS(=O)(=O)c1cc(-c2ccccc2)c(-c2ccccc2)nn1`: 49 µM.
In turn, `CCCCCCCCn1nc(-c2ccccc2)c(-c2ccccc2)cc1=O` yielded an IC50 of 80 µM.
`CCCCCCCSc1cc(-c2ccccc2)c(-c2ccccc2)nn1` registered an IC50 of 76 µM.
Regarding `CCCCCn1nc(-c2ccccc2)c(-c2ccccc2)cc1=O`, the IC50 was 66 µM.
For `CCCCCCCCC[S+]([O-])c1cc(-c2ccccc2)c(-c2ccccc2)nn1` (stereo unspecified), the IC50 is 87 µM.
Turning to `CCCCCCn1nc(-c2ccccc2)c(-c2ccccc2)cc1=O`, inhibition was half-maximal at 57 µM (IC50).
With `CCCCCCS(=O)(=O)c1cc(-c2ccccc2)c(-c2ccccc2)nn1`, half-maximal inhibition (IC50) was put at 60 µM.
`O=C(O)CCCCCSc1cc(-c2ccccc2)c(-c2ccccc2)nn1` displayed an IC50 of more than 300 µM.
For `O=C(O)CCCCCCCn1nc(-c2ccccc2)c(-c2ccccc2)cc1=O`, the IC50 is more than 300 µM.
Take `O=C(O)CCCCCCSc1cc(-c2ccccc2)c(-c2ccccc2)nn1`: the IC50 is more than 300 µM.
Take `CCCCCCNc1cc(-c2ccccc2)c(-c2ccccc2)nn1`: it took 24 µM to reach half-maximal inhibition (IC50).
`CCCCCC(=O)Nc1cc(-c2ccccc2)c(-c2ccccc2)nn1` came in with an IC50 of more than 300 µM.
`O=c1cc(-c2ccccc2)c(-c2ccccc2)nn1C1CCCCC1` yielded an IC50 of more than 300 µM.
The compound `CCCCCCCn1nc(-c2ccccc2)c(-c2ccccc2)cc1=O` registered an IC50 of 86 µM.
Take `CCCCCCC[S+]([O-])c1cc(-c2ccccc2)c(-c2ccccc2)nn1` (stereo unspecified): half-maximal inhibition (IC50) required 77 µM.
With `CCCCCCCCCn1nc(-c2ccccc2)c(-c2ccccc2)cc1=O`, the IC50 is 85 µM.
On the same count and under the same terms, next, `CCCCCC[S+]([O-])c1cc(-c2ccccc2)c(-c2ccccc2)nn1` (stereo unspecified): 75 µM.
For the compound `CCCCCCCCNc1cc(-c2ccccc2)c(-c2ccccc2)nn1`, the IC50 came to 40 µM.
Compound `CCCn1nc(-c2ccccc2)c(-c2ccccc2)cc1=O` registered an IC50 of 230 µM.
`CCCCn1nc(-c2ccccc2)c(-c2ccccc2)cc1=O` displayed an IC50 of 176 µM.
Same read-out and setting: under `CCCCCCCC[S+]([O-])c1cc(-c2ccccc2)c(-c2ccccc2)nn1` (stereo unspecified) stands 92 µM; under `CCCCCCSc1cc(-c2ccccc2)c(-c2ccccc2)nn1`, 62 µM; under `CCCCCOc1cc(-c2ccccc2)c(-c2ccccc2)nn1`, 73 µM.
On to `CC(C)n1nc(-c2ccccc2)c(-c2ccccc2)cc1=O`, for which half-maximal inhibition (IC50) was put at 152 µM.
In turn, `CCCCCCn1nc(-c2ccccc2)c(-c2ccccc2)c(C)c1=O` returned an IC50 of 56 µM.
Compound `CCCCCCCOc1cc(-c2ccccc2)c(-c2ccccc2)nn1` came in with an IC50 of 58 µM.
In turn, `O=C(O)CCCCCCCCSc1cc(-c2ccccc2)c(-c2ccccc2)nn1` showed an IC50 of more than 300 µM.
In turn, `O=c1cc(-c2ccccc2)c(-c2ccccc2)nn1C1CCCC1` registered an IC50 of 119 µM.
On the same count and under the same terms, next, `O=C(O)CCCCCCn1nc(-c2ccccc2)c(-c2ccccc2)cc1=O`: more than 300 µM.
`CCCCCCCCCOc1cc(-c2ccccc2)c(-c2ccccc2)nn1` had an IC50 of 180 µM.
With `CCCCCCCCS(=O)(=O)c1cc(-c2ccccc2)c(-c2ccccc2)nn1`, the IC50 turned out to be 36 µM.

Another assay deals with Sterol O-acyltransferase 1 (Mus musculus) (UniProt Q61263). Description: Inhibitory activity against Acyl-coenzyme A:cholesterol acyltransferase in macrophages.
Sterol O-acyltransferase 1 (Mus musculus), sequence (Q61263 whole entry, looked up): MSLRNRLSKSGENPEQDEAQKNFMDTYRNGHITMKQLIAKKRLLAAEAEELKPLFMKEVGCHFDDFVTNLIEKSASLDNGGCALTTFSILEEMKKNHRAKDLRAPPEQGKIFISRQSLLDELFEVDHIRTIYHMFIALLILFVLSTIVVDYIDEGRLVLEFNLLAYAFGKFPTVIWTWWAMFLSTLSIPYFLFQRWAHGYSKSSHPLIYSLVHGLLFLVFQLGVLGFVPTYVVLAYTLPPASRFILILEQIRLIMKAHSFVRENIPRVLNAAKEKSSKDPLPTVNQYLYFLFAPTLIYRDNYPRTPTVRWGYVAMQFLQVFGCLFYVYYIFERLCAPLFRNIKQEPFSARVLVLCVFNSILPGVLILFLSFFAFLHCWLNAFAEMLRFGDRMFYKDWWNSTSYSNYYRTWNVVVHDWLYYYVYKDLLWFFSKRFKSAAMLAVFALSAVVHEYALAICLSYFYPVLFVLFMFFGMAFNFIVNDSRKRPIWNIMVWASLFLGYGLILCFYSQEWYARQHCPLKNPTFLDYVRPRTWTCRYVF
In turn, `CCCCCCCCNc1cc(-c2ccccc2)c(-c2ccccc2)nn1` returned an IC50 of 3.2 µM.
For `CCCCCCCOc1cc(-c2ccccc2)c(-c2ccccc2)nn1`, the midpoint of inhibition, the IC50, lay at 5.1 µM.

The next assay is filed under the species Mus musculus. Description: Inhibition of cholesterol esterification in macrophages (Cholesterol efflux). Format: functional.
For `CCCCCCCCCNc1cc(-c2ccccc2)c(-c2ccccc2)nn1`, the Esterification inhibitory concentration is 14.1 µM and 13.8 µM.
As for `CCCCCCCCNc1cc(-c2ccccc2)c(-c2ccccc2)nn1`, the Esterification inhibitory concentration is 12.9 µM and 11.5 µM.
With `CCCCCCCOc1cc(-c2ccccc2)c(-c2ccccc2)nn1`, the Esterification inhibitory concentration is 12.6 µM and 11.8 µM.

Tested on in a further assay: not listed separately
Description: Percent inhibition of cell viability in murine macrophages. It counts as functional, Mus musculus. Set-up: concentration or dose not given beside the values.
Take `CCCCCCCCCNc1cc(-c2ccccc2)c(-c2ccccc2)nn1`: the Inhibition was 5.9% and 2.7% and <1%.
For `CCCCCCCCNc1cc(-c2ccccc2)c(-c2ccccc2)nn1`, the Inhibition was 11.5% and 9.9% and 3.7% and 4.8%.
As to `CCCCCCCOc1cc(-c2ccccc2)c(-c2ccccc2)nn1`, the Inhibition is listed as less than 1%.
